# Results published in ChEMBL document CHEMBL4725412, “Augmenting the Activity of Macrolide Adjuvants against Acinetobacter baumannii” (2020).
# Assays:
# Assay type in all cases: functional
# Acinetobacter baumannii [1] = assay: Potentiation of clarithromycin-induced antibacterial activity against Acinetobacter baumannii AB5075 assessed as fold reduction in clarithromycin MIC at 5 uM incubated for 16 hrs in presence of clarithromycin by broth microdilution method
# Acinetobacter baumannii [2] = assay: Potentiation of clarithromycin-induced antibacterial activity against Acinetobacter baumannii AB5075 assessed as clarithromycin MIC at 20 uM incubated for 16 hrs by broth microdilution method (reference value: […] ug/ml)
# Acinetobacter baumannii [3] = assay: Potentiation of clarithromycin-induced antibacterial activity against Acinetobacter baumannii AB5075 assessed as fold reduction in clarithromycin MIC at 30 uM incubated for 16 hrs in presence of clarithromycin by broth microdilution method
# Acinetobacter baumannii [4] = assay: Potentiation of clarithromycin-induced antibacterial activity against Acinetobacter baumannii AB5075 assessed as fold reduction in clarithromycin MIC at 20 uM incubated for 16 hrs in presence of clarithromycin by broth microdilution method
# Acinetobacter baumannii [5] = assay: Potentiation of clarithromycin-induced antibacterial activity against Acinetobacter baumannii AB5075 assessed as clarithromycin MIC at 5 uM incubated for 16 hrs by broth microdilution method (reference value: […] ug/ml)
# Acinetobacter baumannii [6] = assay: Potentiation of clarithromycin-induced antibacterial activity against Acinetobacter baumannii AB5075 assessed as clarithromycin MIC at 15 uM incubated for 16 hrs by broth microdilution method (reference value: […] ug/ml)
# Acinetobacter baumannii [7] = assay: Potentiation of clarithromycin-induced antibacterial activity against Acinetobacter baumannii AB5075 assessed as fold reduction in clarithromycin MIC at 7.5 uM incubated for 16 hrs in presence of clarithromycin broth microdilution method
# Acinetobacter baumannii [8] = assay: Potentiation of clarithromycin-induced antibacterial activity against Acinetobacter baumannii AB5075 assessed as clarithromycin MIC at 7.5 uM incubated for 16 hrs by broth microdilution method (reference value: […] ug/ml)
# Acinetobacter baumannii [9] = assay: Antibacterial activity against Acinetobacter baumannii AB5075 assessed as reduction in microbial growth incubated for 16 hrs by broth microdilution method
# Acinetobacter baumannii [10] = assay: Potentiation of clarithromycin-induced antibacterial activity against Acinetobacter baumannii AB5075 assessed as clarithromycin MIC at […] incubated for 16 hrs by broth microdilution method (reference value: […] ug/ml); settings: dose 30 µM
# Acinetobacter baumannii [11] = assay: Potentiation of clarithromycin-induced antibacterial activity against Acinetobacter baumannii AB5075 assessed as clarithromycin MIC at 10 uM incubated for 16 hrs by broth microdilution method (reference value: […] ug/ml)
# Acinetobacter baumannii [12] = assay: Potentiation of clarithromycin-induced antibacterial activity against Acinetobacter baumannii AB5075 assessed as fold reduction in clarithromycin MIC at 10 uM incubated for 16 hrs in presence of clarithromycin by broth microdilution method
# Acinetobacter baumannii [13] = assay: Antibacterial activity against Acinetobacter baumannii AB5075 assessed as reduction in microbial growth after 6 days by broth microdilution method; settings: AB5075, 144 h, time 6 day
# Acinetobacter baumannii [14] = assay: Antibacterial activity against Acinetobacter baumannii AB5075 assessed as reduction in microbial growth after 2 days by broth microdilution method; settings: AB5075, 48 h, time 2 day
# Acinetobacter baumannii [15] = assay: Antibacterial activity against Acinetobacter baumannii AB5075 assessed as reduction in microbial growth after 9 days by broth microdilution method; settings: AB5075, 216 h, time 9 day
# Acinetobacter baumannii [16] = assay: Potentiation of clarithromycin-induced antibacterial activity against Acinetobacter baumannii AB5075 assessed as clarithromycin MIC at 10 uM by CLSI based microdilution method (reference value: […] ug/ml)
# Acinetobacter baumannii [17] = assay: Antibacterial activity against Acinetobacter baumannii AB5075 assessed as reduction in microbial growth by CLSI based microdilution method
# Acinetobacter baumannii [18] = assay: Potentiation of clarithromycin-induced antibacterial activity against Acinetobacter baumannii AB5075 assessed as assessed as fold reduction in clarithromycin MIC at 10 uM by CLSI based microdilution method
# Acinetobacter baumannii [19] = assay: Potentiation of clarithromycin-induced antibacterial activity against Acinetobacter baumannii AB5075 assessed as clarithromycin MIC at 30 uM by CLSI based microdilution method (reference value: […] ug/ml)
# Acinetobacter baumannii [20] = assay: Potentiation of clarithromycin-induced antibacterial activity against Acinetobacter baumannii AB5075 assessed as assessed as fold reduction in clarithromycin MIC at 30 uM by CLSI based microdilution method
Compound,MIC (Acinetobacter baumannii [9]),MIC (Acinetobacter baumannii [10]),MIC (Acinetobacter baumannii [11]),fold change (FC) (Acinetobacter baumannii [3]),other results
Nc1nc(-c2ccc(NC(=O)c3c(F)c(F)c(F)c(F)c3F)cc2)c[nH]1,≥ 200 µM,–,–,–,–
CC[C@H]1OC(=O)[C@H](C)[C@@H](O[C@H]2C[C@@](C)(OC)[C@@H](O)[C@H](C)O2)[C@H](C)[C@@H](O[C@@H]2O[C@H](C)C[C@H](N(C)C)[C@H]2O)[C@](C)(OC)C[C@@H](C)C(=O)[C@H](C)[C@@H](O)[C@]1(C)O [CLARITHROMYCIN],–,–,–,–,MIC (Acinetobacter baumannii [13]): 512 µg/mL; MIC (Acinetobacter baumannii [14]): ≥ 128 µg/mL; MIC (Acinetobacter baumannii [15]): 512 µg/mL
Nc1nc(-c2ccc(NC(=O)c3cccc(F)c3)cc2)c[nH]1,≥ 200 µM,–,–,–,–
Nc1nc(-c2ccc(NC(=O)c3ccc(C(F)(F)F)cc3)cc2)c[nH]1,≥ 200 µM,–,–,–,–
Nc1ncc(-c2ccc(NC(=O)c3cc(I)c(I)c(I)c3)cc2)[nH]1,≥ 200 µM,–,–,–,–
Cl.Nc1nc(-c2ccc(NC(=O)c3cc(Br)cc(Br)c3)cc2F)c[nH]1,> 200 µM,2 µg/mL,16 µg/mL,16,MIC (Acinetobacter baumannii [2]): 8 µg/mL; fold change (FC) (Acinetobacter baumannii [12]): 2; fold change (FC) (Acinetobacter baumannii [4]): 4
Nc1nc(-c2ccc(NC(=O)c3ccccc3)cc2)c[nH]1,≥ 200 µM,–,–,–,–
Nc1nc(-c2ccc(NC(=O)c3cccc(Br)c3)cc2)c[nH]1,≥ 200 µM,–,–,–,–
Cl.Nc1nc(-c2ccc(NC(=O)c3cc(Cl)cc(Cl)c3)cc2Cl)c[nH]1,> 200 µM,0.5 µg/mL,8 µg/mL,64,MIC (Acinetobacter baumannii [2]): 0.5 µg/mL; fold change (FC) (Acinetobacter baumannii [12]): 4; fold change (FC) (Acinetobacter baumannii [4]): 64
Nc1ncc(-c2ccc(NC(=O)c3cc(Br)cc(Br)c3)cc2)[nH]1,–,–,–,–,MIC (Acinetobacter baumannii [16]): 2 µg/mL; MIC (Acinetobacter baumannii [17]): 100 µM; fold change (FC) (Acinetobacter baumannii [18]): 16; MIC (Acinetobacter baumannii [19]): 0.25 µg/mL; fold change (FC) (Acinetobacter baumannii [20]): 128

# Second part, led by results:
MIC (Acinetobacter baumannii [9]),MIC (Acinetobacter baumannii [10]),MIC (Acinetobacter baumannii [11]),Compound,fold change (FC) (Acinetobacter baumannii [3]),other results
100 µM,0.0625 µg/mL,0.25 µg/mL,Cl.Nc1nc(-c2ccc(NC(=O)Nc3ccc(Cl)c(Cl)c3)cc2)c[nH]1,>=512,fold change (FC) (Acinetobacter baumannii [1]): 4; MIC (Acinetobacter baumannii [2]): 0.0625 µg/mL; fold change (FC) (Acinetobacter baumannii [4]): >=512; MIC (Acinetobacter baumannii [5]): 8 µg/mL; MIC (Acinetobacter baumannii [6]): 0.125 µg/mL; fold change (FC) (Acinetobacter baumannii [7]): 16; MIC (Acinetobacter baumannii [8]): 2 µg/mL
> 200 µM,8 µg/mL,–,Cl.Nc1nc(-c2ccc(NC(=O)c3cc(Cl)cc(Cl)c3)c(Cl)c2)c[nH]1,2,–
100 µM,–,2 µM,Nc1nc(-c2ccc(NC(=O)c3ccc(Cl)c(C(F)(F)F)c3)cc2)c[nH]1,–,–
≥ 200 µM,–,–,Nc1ncc(-c2ccc(NC(=O)c3ccc(I)cc3)cc2)[nH]1,–,–
≥ 200 µM,–,–,Cl.Nc1ncc(-c2ccc(NC(=O)c3cccc(Cl)c3Cl)cc2)[nH]1,4,–
100 µM,0.5 µg/mL,16 µg/mL,COc1cc(-c2c[nH]c(N)n2)ccc1NC(=O)c1cc(Cl)cc(Cl)c1.Cl,64,MIC (Acinetobacter baumannii [2]): 4 µg/mL; fold change (FC) (Acinetobacter baumannii [12]): 2; fold change (FC) (Acinetobacter baumannii [4]): 8
≥ 200 µM,4 µg/mL,–,Cl.Nc1ncc(-c2ccc(NC(=O)c3cc(F)cc(F)c3)cc2)[nH]1,8,–
50 µM,–,2 µg/mL,Cl.Nc1nc(-c2ccc(NC(=O)c3ccc(Cl)c(C(F)(F)F)c3)cc2F)c[nH]1,–,fold change (FC) (Acinetobacter baumannii [12]): 16; MIC (Acinetobacter baumannii [6]): 0.25 µg/mL; fold change (FC) (Acinetobacter baumannii [7]): 4; MIC (Acinetobacter baumannii [8]): 8 µg/mL
100 µM,–,32 µM,Nc1nc(-c2ccc(NC(=O)c3cc(F)c(F)c(F)c3)cc2)c[nH]1,–,MIC (Acinetobacter baumannii [2]): 8 µM
25 µM,–,–,Cc1ccc(C(=O)Nc2ccc(-c3c[nH]c(N)n3)cc2)cc1Cl,–,MIC (Acinetobacter baumannii [5]): 16 µM
